Measurements reported in patent publication US8604040B2 (priority 2010, dated 2013).
Read-outs that look alike come from different tables or passages of the source. Marks after values point to notes of the source that are not given here.

Experiment: log P by HPLC (EEC Directive 79/831 Annex V.A8)
Assay type: physicochemical
[1] = HPLC, pH 2.7, given in the preparation examples, read-out: logP (pH2.7)
[2] = [b] LC-MS, acidic range, pH 2.7, 0.1% aqueous formic acid and acetonitrile
[3] = [c] LC-MS, neutral range, pH 7.8, 0.001 molar aqueous ammonium hydrogencarbonate and acetonitrile
[4] = [a] HPLC, acidic range, pH 2.3, 0.1% aqueous phosphoric acid and acetonitrile

Compound | log P [2] | log P [3] | further results
CCOC(=O)c1cccc(C2CCN(C(=O)OC(C)(C)C)CC2)n1 [Ethyl 6-[1-(tert-butoxycarbonyl)piperidin-4-yl]pyridine-2-carboxylate] |  |  | chromatographic logP [1]: 3.29
Cc1cc(C(F)(F)F)nn1CC(=O)N1CCC(c2cccc(C(=O)Oc3cccc4ccccc34)n2)CC1 [Example 51] | 3.97^[b] |  | 
CCOC(=O)c1cccc(C2CCNCC2)n1 [4-[6-(Ethoxycarbonyl)pyridin-2-yl]piperidinium chloride] |  |  | chromatographic logP [1]: 0.55
Cc1cc(C(F)(F)F)nn1CC(=O)N1CCN(c2cccc(C(=O)NCc3ccccc3Cl)n2)CC1 [Example 65] | 3.34 | 3.36 | 
O=C(OC1CCCCC1)c1cccc(N2CCN(C(=O)Cn3nc(C(F)F)cc3C(F)F)CC2)n1 [Example 119] |  | 4.65 | log P [4]: 4.61
CC(NC(=O)c1cccc(C2CCN(C(=O)Cn3nc(C(F)F)cc3C(F)F)CC2)n1)c1ccccc1Cl (stereo not drawn) [Example 82] | 3.53 | 3.61 | 
CC(C)(C)OC(=O)N1CC=C(c2cccc(Br)n2)CC1 [tert-Butyl 6-bromo-3′,6′-dihydro-2,4′-bipyridine-1′(2′H)-carboxylate] |  |  | chromatographic logP [1]: 4.14
CCOC(=O)c1cccc(C2CCN(C(=O)Cn3nc(C(F)(F)F)cc3C)CC2)n1 [Example 132] | 2.73^[b] |  | 
Cc1cc(C(F)(F)F)nn1CC(=O)N1CCC(c2cccc(C(=O)NC(C)c3ccccc3Cl)n2)CC1 (racemic) [Example 16] | 3.82 | 3.75 | 
Cc1cc(C(F)(F)F)nn1CC(=O)N1CCC(c2cccc(C(=O)NCc3ccccc3Br)n2)CC1 [Example 5] | 3.59^[b]; 3.59^[c] | 3.59^[b]; 3.59^[c] | 
CC(C)(C)OC(=O)N1CCC(c2cccc(C(=O)O)n2)CC1 [6-[1-(tert-Butoxycarbonyl)piperidin-4-yl]pyridine-2-carboxylic acid] |  |  | chromatographic logP [1]: 1.78
O=C(SCc1ccccc1Cl)c1cccc(N2CCN(C(=O)Cn3nc(C(F)F)cc3C(F)F)CC2)n1 [Example 127] |  | 4.44 | log P [4]: 4.42
Cc1cc(C(F)(F)F)nn1CC(=O)N1CCC(c2cccc(C(=O)OC(C)c3ccccc3Cl)n2)CC1 (stereo not drawn) [Example 32] | 4.12^[b] |  | 
CN(Cc1ccc(Cl)cc1Cl)C(=O)c1cccc(C2CCN(C(=O)Cn3nc(C(F)F)cc3C(F)F)CC2)n1 [Example 79] | 3.66 | 3.73 | 
O=C(OCc1c(F)cccc1F)c1cccc(C2CCN(C(=O)Cn3nc(C(F)F)cc3C(F)F)CC2)n1 [Example 107] | 3.44^[b] |  | 
Cc1cc(C(F)(F)F)nn1CC(=O)N1CCN(c2cccc(C(=O)N(C)C3CCCc4ccccc43)n2)CC1 (stereo not drawn) [Example 147] | 3.55 | 3.59 | 
CN(C(=O)c1cccc(C2CCN(C(=O)OC(C)(C)C)CC2)n1)C1CCCc2ccccc21 (stereo not drawn) [tert-butyl 4-{6-[methyl(1,2,3,4-tetrahydronaphthalen-1-yl)carbamoyl]pyridin-2-yl}piperidine-1-carboxylate] |  |  | chromatographic logP [1]: 5.09
CCCCCCCSC(=O)c1cccc(C2CCN(C(=O)Cn3nc(C(F)F)cc3C(F)F)CC2)n1 [Example 129] |  | 5.44 | log P [4]: 5.43
Cc1cc(C(F)(F)F)nn1CC(=O)N1CCN(c2cccc(C(=O)N(C)C3CCCCC3)n2)CC1 [Example 64] | 3.19 | 3.21 | 

Compound | log P [2] | log P [3] | further results
Cc1cc(C(F)(F)F)nn1CC(=O)N1CCC(c2cccc(C(=O)Oc3ccc4ccccc4c3)n2)CC1 [Example 52] | 3.9^[b] |  | 
O=C(NCc1ccc(F)cc1F)c1cccc(C2CCN(C(=O)Cn3nc(C(F)F)cc3C(F)F)CC2)n1 [Example 87] | 3.22 | 3.24 | 
Cc1cc(C(F)(F)F)nn1CC(=O)N1CCC(c2cccc(C(=O)NCc3ccc(F)cc3F)n2)CC1 [Example 22] | 3.36^[b]; 3.36^[c] | 3.36^[b]; 3.36^[c] | 
O=C(Sc1ccccc1)c1cccc(C2CCN(C(=O)Cn3nc(C(F)F)cc3C(F)F)CC2)n1 [Example 121] |  | 3.85 | log P [4]: 3.8
Cc1cc(C(F)(F)F)nn1CC(=O)N1CCC(c2cccc(C(=O)SCc3ccccc3Cl)n2)CC1 [Example 57] | 4.61^[b]; 4.61^[c] | 4.61^[b]; 4.61^[c] | 
Cc1cc(C(F)(F)F)nn1CC(=O)N1CCC(c2cccc(C(=O)OCc3c(F)cccc3F)n2)CC1 [Example 48] | 3.51^[b] |  | 
Cc1cc(C(F)(F)F)nn1CC(=O)N1CCC(c2cccc(C(=O)Sc3ccc4ccccc4c3)n2)CC1 [Example 61] | 4.57 | 4.61 | 
CN(Cc1ccccc1Cl)C(=O)c1cccc(N2CCN(C(=O)Cn3nc(C(F)F)cc3C(F)F)CC2)n1 [Example 148] |  | 3.25 | log P [4]: 3.22
C=CCCCCOC(=O)c1cccc(C2CCN(C(=O)Cn3nc(C(F)(F)F)cc3C)CC2)n1 [Example 39] | 3.86^[b] |  | 
CCCCCCCNC(=O)c1cccc(C2CCN(C(=O)Cn3nc(C(F)(F)F)cc3C)CC2)n1 [Example 20] | 4.25 | 4.24 | 
O=C(OCc1ccccc1Cl)c1cccc(C2CCN(C(=O)Cn3nc(C(F)F)cc3C(F)F)CC2)n1 [Example 105] | 3.77^[b] |  | 
CN(C(=O)c1cccc(C2CCN(C(=O)Cn3nc(C(F)F)cc3C(F)F)CC2)n1)C1CCCCC1 [Example 78] | 3.02 | 3.08 | 
Cc1cc(C(F)(F)F)nn1CC(=O)N1CCC(c2cccc(C(=O)SCc3c(F)cccc3F)n2)CC1 [Example 58] | 4.27 | 4.29 | 
CC(C)(C)OC(=O)N1CCC(O)(c2cccc(Br)n2)CC1 [tert-Butyl 4-(6-bromopyridin-2-yl)-4-hydroxypiperidine-1-carboxylate] |  |  | chromatographic logP [1]: 3.05
O=C(NCc1cccs1)c1cccc(C2CCN(C(=O)Cn3nc(C(F)F)cc3C(F)F)CC2)n1 [Example 91] | 2.98 | 2.97 | 
Cc1cc(C(F)(F)F)nn1CC(=O)N1CCC(c2cccc(C(=O)NCc3ccccc3Cl)n2)CC1 [Example 23] | 3.49 | 3.52 | 
O=C(OC1CCCc2ccccc21)c1cccc(C2CCN(C(=O)Cn3nc(C(F)F)cc3C(F)F)CC2)n1 (stereo not drawn) [Example 100] | 4.07^[b] |  | 
Cc1ccsc1CNC(=O)c1cccc(C2CCN(C(=O)Cn3nc(C(F)F)cc3C(F)F)CC2)n1 [Example 92] | 3.19 | 3.18 | 
O=C(SCc1ccccc1Cl)c1cccc(C2CCN(C(=O)Cn3nc(C(F)F)cc3C(F)F)CC2)n1 [Example 126] |  | 4.49 | log P [4]: 4.44

Compound | log P [2] | log P [3] | further results
O=C(OCc1ccccc1OC(F)(F)F)c1cccc(C2CCN(C(=O)Cn3nc(C(F)F)cc3C(F)F)CC2)n1 [Example 9] | 3.89^[b] |  | 
CCOC(=O)c1cccc(N2CCN(C(=O)Cn3nc(C(F)F)cc3C(F)F)CC2)n1 [Ethyl 6-(4-{[3,5-bis(difluoromethyl)-1H-pyrazol-1-yl]acetyl}piperazin-1-yl)pyridine-2-carboxylate] |  |  | chromatographic logP [1]: 2.71
CN(Cc1ccccc1Br)C(=O)c1cccc(C2CCN(C(=O)Cn3nc(C(F)F)cc3C(F)F)CC2)n1 [Example 1] | 3.32 | 3.37 | 
Cc1cc(C(F)(F)F)nn1CC(=O)N1CCN(c2cccc(C(=O)OCc3c(F)cccc3F)n2)CC1 [Example 74] | 3.54 | 3.55 | 
Cc1cccnc1COC(=O)c1cccc(C2CCN(C(=O)Cn3nc(C(F)(F)F)cc3C)CC2)n1 [Example 49] | 2.23^[b] |  | 
O=C(SCc1c(F)cccc1F)c1cccc(C2CCN(C(=O)Cn3nc(C(F)F)cc3C(F)F)CC2)n1 [Example 113] |  | 4.13 | log P [4]: 4.12
CCOC(=O)c1cccc(N2CCN(C(=O)OC(C)(C)C)CC2)n1 [tert-Butyl 4-[6-(ethoxycarbonyl)pyridin-2-yl]piperazine-1-carboxylate] |  |  | chromatographic logP [1]: 3.32
Cc1cc(C(F)(F)F)nn1CC(=O)N1CCC(c2cccc(C(=O)OC3CCCCC3)n2)CC1 [Example 34] | 3.9^[b] |  | 
O=C(NCc1ccc(Cl)cc1Cl)c1cccc(C2CCN(C(=O)Cn3nc(C(F)F)cc3C(F)F)CC2)n1 [Example 86] | 3.86^[b]; 3.86^[c] | 3.86^[b]; 3.86^[c] | 
Cc1cc(C(F)(F)F)nn1CC(=O)N1CCN(c2cccc(C(=O)SCc3c(F)cccc3F)n2)CC1 [Example 149] | 4.11 | 4.29 | 
Cc1cc(C(F)(F)F)nn1CC(=O)N1CCC(c2cccc(C(=O)NCc3c(F)cccc3F)n2)CC1 [Example 24] | 3.33 | 3.26 | 
CCOC(=O)c1cccc(C2CCN(C(=O)Cn3nc(C(F)F)cc3C(F)F)CC2)n1 [Example 131, Ethyl 6-(1-{[3,5-bis(difluoromethyl)-1H-pyrazol-1-yl]acetyl}piperidin-4-yl)pyridine-2-carboxylate] |  |  | chromatographic logP (HPLC (LC-MS), [b] LC-MS, acidic range, pH 2.7, 0.1% aqueous formic acid and acetonitrile, read-out: log P): 2.68; chromatographic logP [1]: 2.68
Cc1cc(C(F)(F)F)nn1CC(=O)N1CCC(c2cccc(C(=O)NCc3ccccn3)n2)CC1 [Example 25] | 1.97 | 2.44 | 
O=C(OC1C=CCCC1)c1cccc(C2CCN(C(=O)Cn3nc(C(F)F)cc3C(F)F)CC2)n1 (stereo not drawn) [Example 98] | 3.87^[b] |  | 
Cc1cc(C(F)(F)F)nn1CC(=O)N1CCC(c2cccc(C(=O)OC3C=CCCC3)n2)CC1 (stereo not drawn) [Example 33] | 3.64^[b] |  | 
Cc1cc(C(F)(F)F)nn1CC(=O)N1CCC(c2cccc(C(=O)NCc3cccs3)n2)CC1 [Example 26] | 3.15 | 3.1 | 
Cc1cc(C(F)(F)F)nn1CC(=O)N1CCC(c2cccc(C(=O)OC3CCCc4ccccc43)n2)CC1 (stereo not drawn) [Example 35] | 4.15^[b] |  | 
Cc1cc(C(F)(F)F)nn1CC(=O)N1CCN(c2cccc(C(=O)OCc3ccccc3Cl)n2)CC1 [Example 72] | 3.89 | 3.9 | 
O=C(O)c1cccc(N2CCN(C(=O)Cn3nc(C(F)F)cc3C(F)F)CC2)n1 [6-(4-{[3,5-Bis(difluoromethyl)-1H-pyrazol-1-yl]acetyl}piperazin-1-yl)pyridine-2-carboxylic acid] |  |  | chromatographic logP [1]: 0.68
